# Test results published in patent US20220282271A1, “HERBICIDE RESISTANT PLANTS AND METHODS OF MAKING AND USING” (OFFICE OF INNOVATION ADVANCEMENT AND COMMERCIALIZATION, priority 2019, published 2022).
# Legend:
# Format in all cases: in vivo
# Conditions in all cases: 1.0 lb ai/a, applied approximately 3 weeks after emergence, relative to non-treated
# [1] = tested on: Ipomoea quamoclit; assay: Weed control screen: cypressvine morningglory
# Method: (§1) Herbicides were applied at a spray volume of 280 L/ha with no adjuvant added to any herbicide mixture. Weed control was rated on a 0 to 100 percent phytoxicity scale with 0 being no plant injury/phytotoxicity and 100 being complete plant dessication. Twenty-one weeds were evaluated for response to herbicides (Table 3). The weeds selected were a mixture of weeds common in agronomic and horticultural crops. Herbicide was applied to all species approximately 3 weeks after emergence. Plant phytotoxicity rated as percent control relative to the non-treated.
# [2] = tested on: Sida spinosa; assay: Weed control screen: prickly sida
# Method: as §1
# [3] = tested on: Ipomoea hederacea; assay: Weed control screen: entireleaf morningglory
# Method: as §1
# [4] = tested on: Abutilon theophrasti; assay: Weed control screen: velvetleaf
# Method: as §1
# [5] = tested on: Sesbania exaltata; assay: Weed control screen: hemp sesbania
# Method: as §1
# [6] = tested on: Murdannia nudiflora; assay: Weed control screen: doveweed
# Method: as §1
# [7] = tested on: Sorghum halapense; assay: Weed control screen: johnsongrass
# Method: as §1
# [8] = tested on: Eleusine indica; assay: Weed control screen: goosegrass
# Method: as §1
# [9] = tested on: Jaquemontia tamnifolia; assay: Weed control screen: smallflower morningglory
# Method: as §1
# [10] = tested on: Conyza candensis; assay: Weed control screen: glyphosate-resistant horseweed
# Method: as §1
# [11] = tested on: Ipomoea coccinea; assay: Weed control screen: red morningglory
# Method: as §1
# [12] = tested on: Crotalaria spectabilis; assay: Weed control screen: showy crotalaria
# Method: as §1
# [13] = tested on: Amaranthus hybridus; assay: Weed control screen: smooth pigweed
# Method: as §1
# [14] = tested on: Physalis angulata; assay: Weed control screen: cutleaf groundcherry
# Method: as §1
# [15] = tested on: Amaranthus palmeri; assay: Weed control screen: glyphosate resistant palmer amaranth
# Method: as §1
# [16] = tested on: Cyperus iria; assay: Weed control screen: rice flatsedge
# Method: as §1
# [17] = tested on: Solanum carolinense; assay: Weed control screen: Carolina horsenettle
# Method: as §1
# [18] = tested on: Senna obtusifolia; assay: Weed control screen: sicklepod
# Method: as §1
# [19] = tested on: Ipomoea lacunosa; assay: Weed control screen: pitted morningglory
# Method: as §1
# [20] = tested on: Albizia julibrissin; assay: Weed control screen: silktree
# Method: as §1
# [21] = tested on: Kyllinga squamulata; assay: Weed control screen: cock's comb kyllinga
# Method: as §1
Compound,Percent control (0 to 100) [2] [%],Percent control (0 to 100) [3] [%],Percent control (0 to 100) [4] [%],Percent control (0 to 100) [5] [%],Percent control (0 to 100) [6] [%],Percent control (0 to 100) [7] [%],Percent control (0 to 100) [8] [%],Percent control (0 to 100) [9] [%],Percent control (0 to 100) [10] [%],Percent control (0 to 100) [11] [%],Percent control (0 to 100) [12] [%],Percent control (0 to 100) [13] [%],Percent control (0 to 100) [14] [%],Percent control (0 to 100) [15] [%],Percent control (0 to 100) [17] [%],Percent control (0 to 100) [18] [%],Percent control (0 to 100) [19] [%],Percent control (0 to 100) [20] [%],Percent control (0 to 100) [21] [%],further results
"CP(=O)(O)CCC(N)C(=O)O (stereo not shown) [Glufosinate, glufosinate]",100,100,100,100,100,100,100,100,100,100,100,100,100,100,100,100,100,100,30,Percent control (0 to 100) [1]: 100%; Percent control (0 to 100) [16]: 60%
"O=C(O)CNCP(=O)(O)O [Glyphosate, glyphosate]",60,60,100,75,80,100,90,40,0,50,60,90,99,35,50,70,60,25,95,–
